Values belong to the compound of their own block, whether it stands above or below them. Active and inactive are the calls of the source. The calls are words filed in the database; no cut-off is given here.
How the values were obtained:
[1] = system: MGC-803; assay: cells; assay type: functional, cell-based; details: Homo sapiens, MGC-803, 72 h
Description: Antiproliferative activity against human MGC803 cells incubated for 72 hrs by MTT assay

[2] = system: PC-3; assay: cells; assay type: functional, cell-based; details: Homo sapiens, PC-3, 72 h
Description: Antiproliferative activity against human PC3 cells incubated for 72 hrs by MTT assay

[3] = target: Histone deacetylase 1 (Homo sapiens, UniProt Q13547); assay: Inhibition of C-terminal His-tagged and C-terminal FLAG-tagged human HDAC1 expressed in baculovirus expression system using Ac-peptide substrate incubated for 15 mins by fluorescence based assay
[4] = system: MCF7; assay: cells; assay type: functional, cell-based; details: Homo sapiens, MCF7, 72 h
Description: Antiproliferative activity against human MCF7 cells incubated for 72 hrs by MTT assay

[5] = target: T1, Amine oxidase [flavin-containing] B (Homo sapiens, UniProt P27338)
T1 sequence (P27338 whole entry): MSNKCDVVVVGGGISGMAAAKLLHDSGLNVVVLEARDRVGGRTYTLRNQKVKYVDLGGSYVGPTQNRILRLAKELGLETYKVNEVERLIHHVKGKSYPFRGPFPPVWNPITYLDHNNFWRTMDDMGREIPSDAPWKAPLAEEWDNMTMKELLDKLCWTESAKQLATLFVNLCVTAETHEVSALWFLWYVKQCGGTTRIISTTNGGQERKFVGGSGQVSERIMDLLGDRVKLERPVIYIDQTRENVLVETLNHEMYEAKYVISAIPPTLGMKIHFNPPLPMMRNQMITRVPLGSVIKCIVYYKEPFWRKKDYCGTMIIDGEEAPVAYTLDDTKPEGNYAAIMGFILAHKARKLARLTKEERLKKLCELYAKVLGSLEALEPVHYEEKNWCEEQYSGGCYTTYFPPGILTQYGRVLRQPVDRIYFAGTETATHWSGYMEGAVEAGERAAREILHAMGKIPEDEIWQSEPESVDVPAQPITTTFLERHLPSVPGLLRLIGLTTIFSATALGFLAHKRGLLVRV
Description: Inhibition of MAOB (unknown origin) using beetle luciferin as substrate by MAO-Glo assay

[6] = target: Histone deacetylase 2 (Homo sapiens, UniProt Q92769)
Description: Inhibition of C-terminal His-tagged full length human HDAC2 expressed in baculovirus expression system using Ac-peptide substrate incubated for 15 mins by fluorescence based assay

[7] = system: A549; assay: cells; assay type: functional, cell-based; details: Homo sapiens, A549, 72 h
Description: Antiproliferative activity against human A549 cells incubated for 72 hrs by MTT assay

[8] = target: Histone deacetylase 5 (Homo sapiens, UniProt Q9UQL6); assay: Inhibition of C-terminal His-tagged human HDAC5 (656-1122 residues) expressed in baculovirus expression system using Ac-peptide substrate incubated for 15 mins by fluorescence based assay
[9] = target: T2, Lysine-specific histone demethylase 1A (Homo sapiens, UniProt O60341)
Description: Inhibition of recombinant LSD1 (157 to 852 amino acids) (unknown origin) expressed in Escherichia coli BL21(DE) using H3K4me2 substrate by amplex red and horseradish peroxidase based fluorescence assay

[10] = system: SW-620; assay: cells; assay type: functional, cell-based; details: Homo sapiens, SW-620, 72 h
Description: Antiproliferative activity against human SW620 cells incubated for 72 hrs by MTT assay

[11] = target: T3, Amine oxidase [flavin-containing] A (Homo sapiens, UniProt P21397)
T3 sequence (P21397 whole entry): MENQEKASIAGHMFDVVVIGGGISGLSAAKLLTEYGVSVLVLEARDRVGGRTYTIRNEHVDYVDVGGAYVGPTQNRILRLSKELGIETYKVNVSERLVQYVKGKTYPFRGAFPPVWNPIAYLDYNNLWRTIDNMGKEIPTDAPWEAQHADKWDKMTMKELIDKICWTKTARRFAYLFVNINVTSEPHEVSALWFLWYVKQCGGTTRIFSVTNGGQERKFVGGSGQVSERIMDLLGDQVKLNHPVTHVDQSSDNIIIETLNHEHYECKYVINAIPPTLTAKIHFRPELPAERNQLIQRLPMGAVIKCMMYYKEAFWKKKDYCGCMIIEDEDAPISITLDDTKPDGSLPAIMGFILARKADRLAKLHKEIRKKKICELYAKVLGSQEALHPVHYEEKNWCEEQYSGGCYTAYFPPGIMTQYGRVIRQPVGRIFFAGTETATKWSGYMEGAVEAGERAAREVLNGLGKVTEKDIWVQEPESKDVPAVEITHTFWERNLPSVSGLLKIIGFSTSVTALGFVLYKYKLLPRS
Description: Inhibition of MAOA (unknown origin) using beetle luciferin as substrate by MAO-Glo assay

[12] = system: MGC-803; assay: Induction of apoptosis in human MGC803 cells assessed as late apoptotic cells level at 2.5 uM incubated for 48 hrs by Annexin-V-FITC/propidium iodide staining based flow cytometry (reference value: 0.121%); assay type: functional
[13] = target: Histone deacetylase (Homo sapiens) (UniProt Q13547+O15379+Q9UBN7+Q92769+Q9UQL6+Q8WUI4+Q9BY41+Q96DB2+P56524+Q9UKV0+Q969S8); assay: Inhibition of HDAC in human MGC803 cells assessed as increase in cellular histone H3 acetylation levels incubated for 24 hrs by Western blot; assay type: cell-based
[14] = target: T2, Lysine-specific histone demethylase 1A; assay: Inhibition of LSD1 in human MGC803 cells assessed as increase in cellular H3K4me3 levels at 2 uM incubated for 24 hrs by Western blot; assay type: cell-based
[15] = system: MGC-803; assay: Induction of apoptosis in human MGC803 cells assessed as viable cells level at 2.5 uM incubated for 24 hrs by Annexin-V-FITC/propidium iodide staining based flow cytometry (reference value: 94.6%); assay type: functional
[16] = system: MGC-803; assay: Induction of apoptosis in human MGC803 cells assessed as early apoptotic cells level at 2.5 uM incubated for 24 hrs by Annexin-V-FITC/propidium iodide staining based flow cytometry (reference value: 4.37%); assay type: functional
[17] = system: MGC-803; assay: Induction of apoptosis in human MGC803 cells assessed as late apoptotic cells level at 7.5 uM incubated for 24 hrs by Annexin-V-FITC/propidium iodide staining based flow cytometry (reference value: 0.447%); assay type: functional
[18] = system: MGC-803; assay: Induction of apoptosis in human MGC803 cells assessed as early apoptotic cells level at 5 uM incubated for 48 hrs by Annexin-V-FITC/propidium iodide staining based flow cytometry (reference value: 7.35%); assay type: functional
[19] = system: MGC-803; assay: Induction of mitochondrial membrane potential loss in human MGC803 cells assessed as FL2 red fluorescence level at 7.5 uM incubated for 48 hrs by JC1 staining based flow cytometry (reference value: 5.47%); assay type: functional
[20] = system: MGC-803; assay: Induction of apoptosis in human MGC803 cells assessed as necrotic cells level at 7.5 uM incubated for 24 hrs by Annexin-V-FITC/propidium iodide staining based flow cytometry (reference value: 0.596%); assay type: functional
[21] = system: MGC-803; assay: Induction of apoptosis in human MGC803 cells assessed as late apoptotic cells level at 5 uM incubated for 24 hrs by Annexin-V-FITC/propidium iodide staining based flow cytometry (reference value: 0.447%); assay type: functional
[22] = target: T2, Lysine-specific histone demethylase 1A; assay: Inhibition of LSD1 in human MGC803 cells assessed as increase in cellular H3K4me2 levels incubated for 24 hrs by Western blot; assay type: cell-based
[23] = target: T2, Lysine-specific histone demethylase 1A; assay: Inhibition of LSD1 in human MGC803 cells assessed as increase in cellular H3K9me2 levels incubated for 24 hrs by Western blot; assay type: cell-based
[24] = system: MGC-803; assay: Potency index, ratio of IC50 for SAHA to IC50 for test compound for antiproliferative activity against human MGC803 cells incubated for 72 hrs by MTT assay; assay type: functional
[25] = system: MGC-803; assay: Induction of apoptosis in human MGC803 cells assessed as early apoptotic cells level at 7.5 uM incubated for 48 hrs by Annexin-V-FITC/propidium iodide staining based flow cytometry (reference value: 7.35%); assay type: functional
[26] = system: MGC-803; assay: Induction of apoptosis in human MGC803 cells assessed as necrotic cells level at 5 uM incubated for 48 hrs by Annexin-V-FITC/propidium iodide staining based flow cytometry (reference value: 0.242%); assay type: functional
[27] = system: MGC-803; assay: Induction of apoptosis in human MGC803 cells assessed as viable cells level at 7.5 uM incubated for 24 hrs by Annexin-V-FITC/propidium iodide staining based flow cytometry (reference value: 94.6%); assay type: functional
[28] = system: MGC-803; assay: Induction of apoptosis in human MGC803 cells assessed as viable cells level at 2.5 uM incubated for 48 hrs by Annexin-V-FITC/propidium iodide staining based flow cytometry (reference value: 92.3%); assay type: functional
[29] = system: MGC-803; assay: Induction of mitochondrial membrane potential loss in human MGC803 cells assessed as FL2 red fluorescence level at 2.5 uM incubated for 48 hrs by JC1 staining based flow cytometry (reference value: 5.47%); assay type: functional
[30] = system: MGC-803; assay: Induction of apoptosis in human MGC803 cells assessed as late apoptotic cells level at 7.5 uM incubated for 48 hrs by Annexin-V-FITC/propidium iodide staining based flow cytometry (reference value: 0.121%); assay type: functional
[31] = system: MGC-803; assay: Induction of apoptosis in human MGC803 cells assessed as late apoptotic cells level at 2.5 uM incubated for 24 hrs by Annexin-V-FITC/propidium iodide staining based flow cytometry (reference value: 0.447%); assay type: functional
[32] = system: MGC-803; assay: Induction of apoptosis in human MGC803 cells assessed as necrotic cells level at 7.5 uM incubated for 48 hrs by Annexin-V-FITC/propidium iodide staining based flow cytometry (reference value: 0.242%); assay type: functional
[33] = system: MGC-803; assay: Induction of apoptosis in human MGC803 cells assessed as viable cells level at 5 uM incubated for 24 hrs by Annexin-V-FITC/propidium iodide staining based flow cytometry (reference value: 94.6%); assay type: functional
[34] = system: MGC-803; assay: Induction of apoptosis in human MGC803 cells assessed as late apoptotic cells level at 5 uM incubated for 48 hrs by Annexin-V-FITC/propidium iodide staining based flow cytometry (reference value: 0.121%); assay type: functional
[35] = system: MGC-803; assay: Induction of apoptosis in human MGC803 cells assessed as early apoptotic cells level at 7.5 uM incubated for 24 hrs by Annexin-V-FITC/propidium iodide staining based flow cytometry (reference value: 4.37%); assay type: functional
[36] = system: MGC-803; assay: Induction of mitochondrial membrane potential loss in human MGC803 cells assessed as FL2 red fluorescence level at 5 uM incubated for 48 hrs by JC1 staining based flow cytometry (reference value: 5.47%); assay type: functional
[37] = target: T2, Lysine-specific histone demethylase 1A; remark: listed apart in the source
[38] = system: MGC-803; assay: Induction of apoptosis in human MGC803 cells assessed as viable cells level at 5 uM incubated for 48 hrs by Annexin-V-FITC/propidium iodide staining based flow cytometry (reference value: 92.3%); assay type: functional
[39] = system: MGC-803; assay: Induction of apoptosis in human MGC803 cells assessed as necrotic cells level at 2.5 uM incubated for 48 hrs by Annexin-V-FITC/propidium iodide staining based flow cytometry (reference value: 0.242%); assay type: functional
[40] = target: T2, Lysine-specific histone demethylase 1A; assay: Inhibition of LSD1 in human MGC803 cells assessed as increase in cellular H3K4me3 levels at 1 uM incubated for 24 hrs by Western blot; assay type: cell-based
[41] = system: MGC-803; assay: Induction of apoptosis in human MGC803 cells assessed as necrotic cells level at 5 uM incubated for 24 hrs by Annexin-V-FITC/propidium iodide staining based flow cytometry (reference value: 0.596%); assay type: functional
[42] = system: MGC-803; assay: Induction of mitochondrial membrane potential loss in human MGC803 cells incubated for 48 hrs by JC1 staining based flow cytometry; assay type: functional, cell-based
[43] = system: MGC-803; assay: Induction of apoptosis in human MGC803 cells assessed as necrotic cells level at 2.5 uM incubated for 24 hrs by Annexin-V-FITC/propidium iodide staining based flow cytometry (reference value: 0.596%); assay type: functional
[44] = system: MGC-803; assay: Induction of apoptosis in human MGC803 cells assessed as early apoptotic cells level at 2.5 uM incubated for 48 hrs by Annexin-V-FITC/propidium iodide staining based flow cytometry (reference value: 7.35%); assay type: functional
[45] = system: MGC-803; assay: Induction of apoptosis in human MGC803 cells assessed as viable cells level at 7.5 uM incubated for 48 hrs by Annexin-V-FITC/propidium iodide staining based flow cytometry (reference value: 92.3%); assay type: functional
[46] = system: MGC-803; assay: Induction of apoptosis in human MGC803 cells assessed as early apoptotic cells level at 5 uM incubated for 24 hrs by Annexin-V-FITC/propidium iodide staining based flow cytometry (reference value: 4.37%); assay type: functional

Histone deacetylase 5, sequence (Q9UQL6 whole entry, the tested form may be a part): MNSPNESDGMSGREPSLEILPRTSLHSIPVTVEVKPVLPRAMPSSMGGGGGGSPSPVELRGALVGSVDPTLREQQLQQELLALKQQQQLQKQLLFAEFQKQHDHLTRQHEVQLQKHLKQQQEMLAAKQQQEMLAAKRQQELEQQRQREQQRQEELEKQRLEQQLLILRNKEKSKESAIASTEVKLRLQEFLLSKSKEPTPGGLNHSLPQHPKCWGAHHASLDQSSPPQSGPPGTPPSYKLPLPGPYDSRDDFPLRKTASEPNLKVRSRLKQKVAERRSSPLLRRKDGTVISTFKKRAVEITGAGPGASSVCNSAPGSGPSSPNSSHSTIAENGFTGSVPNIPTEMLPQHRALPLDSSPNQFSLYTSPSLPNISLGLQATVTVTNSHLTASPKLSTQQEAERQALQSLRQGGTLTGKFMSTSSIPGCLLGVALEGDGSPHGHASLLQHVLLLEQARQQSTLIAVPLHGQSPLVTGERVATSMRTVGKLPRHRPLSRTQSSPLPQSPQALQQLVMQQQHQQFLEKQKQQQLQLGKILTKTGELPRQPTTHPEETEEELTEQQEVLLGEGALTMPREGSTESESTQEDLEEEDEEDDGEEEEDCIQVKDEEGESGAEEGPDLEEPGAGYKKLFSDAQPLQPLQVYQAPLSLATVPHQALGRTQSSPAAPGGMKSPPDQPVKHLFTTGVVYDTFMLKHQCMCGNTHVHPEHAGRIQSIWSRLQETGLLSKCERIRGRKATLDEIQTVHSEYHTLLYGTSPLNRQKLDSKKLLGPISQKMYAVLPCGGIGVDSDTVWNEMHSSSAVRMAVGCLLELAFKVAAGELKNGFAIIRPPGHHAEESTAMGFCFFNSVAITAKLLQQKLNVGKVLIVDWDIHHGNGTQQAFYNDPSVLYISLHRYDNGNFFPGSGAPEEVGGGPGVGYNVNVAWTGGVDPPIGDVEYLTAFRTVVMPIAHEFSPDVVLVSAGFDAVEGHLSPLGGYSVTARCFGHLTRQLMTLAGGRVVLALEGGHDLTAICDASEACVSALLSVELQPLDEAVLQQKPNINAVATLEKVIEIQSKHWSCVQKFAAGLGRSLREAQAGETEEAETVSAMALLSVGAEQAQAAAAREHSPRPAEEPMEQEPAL
Histone deacetylase 2, sequence (Q92769 whole entry): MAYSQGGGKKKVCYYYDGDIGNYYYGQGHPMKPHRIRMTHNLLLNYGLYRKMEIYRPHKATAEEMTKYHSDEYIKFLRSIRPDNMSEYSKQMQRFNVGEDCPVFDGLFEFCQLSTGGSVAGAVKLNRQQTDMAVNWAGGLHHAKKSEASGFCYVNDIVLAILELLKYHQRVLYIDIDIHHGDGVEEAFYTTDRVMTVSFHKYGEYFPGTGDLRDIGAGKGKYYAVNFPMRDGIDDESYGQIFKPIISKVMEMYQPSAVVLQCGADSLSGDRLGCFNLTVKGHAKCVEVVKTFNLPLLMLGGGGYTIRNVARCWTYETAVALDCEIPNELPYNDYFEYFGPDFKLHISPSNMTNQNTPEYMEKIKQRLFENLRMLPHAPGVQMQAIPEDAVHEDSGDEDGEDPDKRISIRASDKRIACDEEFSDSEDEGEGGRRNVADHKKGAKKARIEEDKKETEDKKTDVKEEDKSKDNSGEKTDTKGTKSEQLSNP
Histone deacetylase 1, sequence (Q13547 whole entry): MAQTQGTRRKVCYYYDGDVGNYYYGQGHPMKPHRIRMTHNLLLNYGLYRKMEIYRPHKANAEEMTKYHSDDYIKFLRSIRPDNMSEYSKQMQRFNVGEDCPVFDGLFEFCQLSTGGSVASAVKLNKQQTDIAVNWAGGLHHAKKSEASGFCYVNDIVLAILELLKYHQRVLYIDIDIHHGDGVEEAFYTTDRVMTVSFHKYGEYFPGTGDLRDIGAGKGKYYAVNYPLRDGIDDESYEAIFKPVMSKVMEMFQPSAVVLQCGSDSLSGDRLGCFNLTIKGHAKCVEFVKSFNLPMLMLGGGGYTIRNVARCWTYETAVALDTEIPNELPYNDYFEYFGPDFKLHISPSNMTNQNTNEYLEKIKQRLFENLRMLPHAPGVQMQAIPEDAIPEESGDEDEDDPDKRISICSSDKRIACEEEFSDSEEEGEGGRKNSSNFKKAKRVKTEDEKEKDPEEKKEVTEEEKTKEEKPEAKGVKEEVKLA

IC50 [1]: 12 µM
IC50 [2]: 19.8 µM
IC50 [3]: 1.44 µM
IC50 [4]: 17.3 µM
IC50 [5]: > 100 µM
IC50 [6]: 3.1 µM
IC50 [7]: 6.75 µM
IC50 [8]: Not Active
IC50 [9]: 4.09 µM
IC50 [10]: 23.3 µM
IC50 [11]: 45.8 µM
Compound: O=C(NO)c1ccc(CNC2CC2c2ccccc2)cc1 (configuration not stated)

inhibition [13]: Dose-dependent effect
inhibition [14]: inactive
IC50 [1]: 0.81 µM
IC50 [2]: 5.48 µM
inhibition [22]: Dose-dependent effect
inhibition [23]: Dose-dependent effect
IC50 [3]: 0.015 µM
IC50 [4]: 4.28 µM
IC50 [5]: 87.1 µM
IC50 [6]: 0.023 µM
IC50 [7]: 1.34 µM
IC50 ([8]; read-out: IC50): 16.8 µM
Ratio IC50 [37]: 25
inhibition [40]: inactive
IC50 [9]: 1.2 µM
IC50 [10]: 2.35 µM
IC50 [11]: 21.1 µM
Compound: O=C(CCCCCCNC(=O)c1ccc(CNC2(c3ccccc3)CC2)cc1)NO
Activity [12]: 35.2%
Activity [15]: 72%
Activity [16]: 22.5%
Activity [17]: 10.9%
Activity [18]: 42%
Activity [19]: 94%
Activity [20]: 2.71%
Activity [21]: 11%
Ratio IC50 [24]: 10
Activity [25]: 41.4%
Activity [26]: 2.21%
Activity [27]: 54.7%
Activity [28]: 25.4%
Activity [29]: 46.6%
Activity [30]: 49.6%
Activity [31]: 4.27%
Activity [32]: 1.61%
Activity [33]: 60%
Activity [34]: 43.9%
Activity [35]: 31.7%
Activity [36]: 83.5%
Activity [38]: 11.9%
Activity [39]: 2.2%
Activity [41]: 2.82%
Activity [42]: Dose-dependent effect
Activity [43]: 1.22%
Activity [44]: 37.2%
Activity [45]: 7.42%
Activity [46]: 26.2%
